Measured values as given in patent publication US11160798B2, “Neuroprotective CB2 receptor agonists” (THE CLEVELAND CLINIC FOUNDATION, priority 2012, dated 2021).

Columns and labels:
CB2 receptor = CB2 receptor (Homo sapiens, UniProt P34972); details: cited from earlier work
[1] = system: cognitive impairment induced by Aβ1-40; assay: Morris water maze test in rats microinjected with Aβ1-40 fibrils; assay type: in vivo, rat; details: Aβ1-40-injected rats
Experimental: Animals and treatment protocol. All animal procedures were approved by the Animal Care and Use Committee of Cleveland Clinic. Animals were housed the Institutional Biological Rodent Unit on a 12/12 h light/dark cycle with water and food pellets available ad libitum. Adult male Sprague-Dawley (Charles River, Wilmington, Mass.) rats weighing 200-250 g were used, and all experiments were performed during the light cycle.
(§1) Animals were divided into several groups ([…]). The Aβ1-40 group received bilateral intracerebral microinjection of Aβ1-40 fibrils once and saline intraperitoneally (i.p.) daily for 14 days. The Aβ1-40+MDA7 group received bilateral intracerebral microinjection of Aβ1-40 fibrils once and 15 mg/kg MDA7 i.p. daily for 14 days. Other cohorts received smaller doses of MDA7 (5 mg/kg or 1.5 mg/kg) i.p. daily for 14 days to determine the dose-response characteristics for MDA7. In other groups, AM630 (a CB2 antagonist) 5 mg/kg i.p. was administered daily for 14 days either alone (Aβ1-40+AM630 group) or 15 min prior to MDA7 (15 mg/kg i.p.) administration (Aβ1-40+MDA7+AM630 group) to rats injected with β1-40 fibrils. MDA7 group and control group received bilateral intracerebral microinjection of artificial cerebrospinal fluid (130 mM NaCl, 2.6 mM KCl. 4.3 mM MgCl2 and 1.8 mM CaCl2) once and 15 mg/kg MDA7 or saline i.p. daily for 14 days, respectively. Intraperitoneal administration of AM630, MDA7 or saline started on the same day after intracerebral microinjection of Aβ1-40. All drugs were prepared coded. Decoding was performed at the end of all experiments.
Microinjection of amyloid fibrils into the hippocampal CA1 area. Rats were anesthetized with sodium pentobarbital (45 mg/kg i.p.) and restrained in a stereotaxic apparatus. Aβ1-40 fibrils were formed as described previously. Chacon, et al., Mol Psychiatry 9(10), 953-61 (2004), Aβ1-40 fibrils (10 μg/3 μl) or 3 μl of artificial cerebrospinal fluid were injected stereotaxically and bilaterally into each hippocampus (coordinates; Bregma −3.5 mm anteroposterior, ±2.0 mm mediolateral, and −3.0 mm dorsoventral) using a 10 μl Hamilton syringe with a 27 G stainless steel needle at a rate of 0.5 μl/min. This experimental model has been used for studying AD. Ahmed, et al., Neuroscience 169(3), 1296-306 (2010).
Morris water maze test. A cohort of rats (n=10 per group) was tested 15 days after surgery as described by Chacon et al. (ibid). Testing was conducted in all groups at the same time of the day. The experimental apparatus consisted of a circular pool (120 cm in diameter, 45 cm high). An invisible platform (15 cm in diameter, 35 cm high) was placed 1.5 cm below the surface of the water. The water temperature was kept at 24-28° C. The pool was located in a test room, and many clues external to the maze were visible from the pool, which could be used by the rats for spatial orientation. The position of the cues was kept constant throughout the task. Each rat underwent four trials per day for five days. During each trial (memory acquisition), the rats were placed randomly at one of four fixed starting points and were allowed to swim for 120 s or until they escaped from the water by reaching the platform. The platform was located in the same position throughout the test in the middle of one quadrant. The start location was moved to a different quadrant in each trial so that no single start location was used in consecutive trials. In each training session, the latency to escape to the hidden platform was recorded. After the rats reached the platform, they were allowed to rest there for 20 seconds, and they then were removed from the pool. An inter-trial interval of at least 4 minutes was used to ensure that each rat's performance was not impaired by fatigue. After completing four trials, the rats were removed from the pool, dried and returned to their home cage. […]

Aβ1-40 = assay: Clearance of Aβ1-40 injected in the hippocampal CA1 area (immunofluorescence); assay type: in vivo, rat
Experimental: as §1
Microinjection of amyloid fibrils into the hippocampal CA1 area. Rats were anesthetized with sodium pentobarbital (45 mg/kg i.p.) and restrained in a stereotaxic apparatus. Aβ1-40 fibrils were formed as described previously. […]
Immunostaining. […] Three to six sections from each rat were randomly selected and were analyzed using Leica DMLB fluorescence microscope (Leica Microsystems Wetzlar GmbH, Germany) by one investigator, who was blinded to the origin of tissue being examined. Images were quantified using MCID Core software version 7.0 (InterFocus Imaging Ltd, Cambridge, England).

Chain of CB2 receptor (P34972 whole entry): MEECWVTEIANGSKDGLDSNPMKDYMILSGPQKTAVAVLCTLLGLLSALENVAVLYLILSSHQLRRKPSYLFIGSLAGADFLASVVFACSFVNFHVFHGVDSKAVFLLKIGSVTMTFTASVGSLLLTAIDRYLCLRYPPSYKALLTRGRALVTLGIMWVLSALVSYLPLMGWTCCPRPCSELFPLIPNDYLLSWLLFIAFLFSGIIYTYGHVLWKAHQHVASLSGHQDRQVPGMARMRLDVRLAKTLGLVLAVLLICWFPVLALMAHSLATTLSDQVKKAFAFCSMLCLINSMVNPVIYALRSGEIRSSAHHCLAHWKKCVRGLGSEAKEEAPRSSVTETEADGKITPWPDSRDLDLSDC

Structure (SMILES) | activity compared with the other enantiomer (CB2 receptor) | effect on escape latency of AM630 given prior to MDA7 ([1]; AM630 5 mg/kg i.p. 15 min prior to MDA7 15 mg/kg i.p., daily for 14 days) | spatial memory or probe test, AM630 alone ([1]; AM630 5 mg/kg i.p. daily for 14 days alone, vs Aβ1-40 group) | effect of prior AM630 on MDA7-induced removal of Aβ1-40 (Aβ1-40; AM630 5 mg/kg i.p. for 14 days prior to MDA7 15 mg/kg) | clearance of injected Aβ1-40, AM630 alone (Aβ1-40; Aβ1-40-injected rats, AM630 5 mg/kg i.p. alone)
CC1(Cc2ccccc2)COc2cc(C(=O)N3CCCCC3)ccc21 (stereo in doubt) [S enantiomer, (S)-(3-benzyl-3-methyl-2,3-dihydro-benzofuran-6-yl)-piperidin-1-yl-methanone] | higher activity |  |  |  | 
COc1ccc(C(=O)c2c(C)n(CCN3CCOCC3)c3cc(I)ccc23)cc1 [AM630, reference compound] |  | reversed the effect of MDA7 | did not show any improvement | abrogated | no effect
